In patent US11000033B2, “Ketone or oxime compound, and herbicide” (NISSAN CHEMICAL CORPORATION, priority 2014, dated 2021):

Experiments:
Format in all cases: in vivo
Scirpus juncoides = assay: Test Example 1: herbicidal activity, application before weed generation in submerged conditions (symbol B); conditions: application herbicide amount 320 g/ha
How it was run: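 Scores run 0 to 5 by herbicidal ratio, with 5 meaning 90% or more and 0 meaning 5% or lower, read 3 weeks after treatment. Compound was applied as a diluted emulsion to the water surface of submerged alluvial-soil pots on the day weed seeds were sown.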

transplanted rice plant = assay: Test Example 1: effect on crop, application before weed generation in submerged conditions (symbol a); conditions: application herbicide amount 320 g/ha
How it was run: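 Alluvial soil pots flooded to 4 cm water, sown with Echinochloa oryzacola, Scirpus juncoides and Monochoria vaginalis, then transplanted with 2.5 leaf stage rice seedlings; pre-emergence application. Greenhouse 25° C. to 30° C.; scored 0–5 by herbicidal ratio 3 weeks after application.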

Monochoria vaginalis = assay: Test Example 2: herbicidal activity, application during weed generation in submerged conditions (symbol C); conditions: Table 23; application herbicide amount 320 g/ha; grade 0-5 by criteria of Test Example 1
How it was run: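 Weeds emerging under flooded conditions were treated with compound formulated as an emulsion and diluted with water to the intended herbicide amount, poured onto the surface of 4 cm standing water. Seeds had been co-sown in alluvial soil; plants grew at 25° C. to 30° C. and were assessed after 3 weeks.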

Alopecurus myosuroides [1] = assay: Test Example 4: herbicidal effect by soil treatment (symbol J); conditions: for J (Alopecurus myosuroides) herbicidal effect grade: application herbicide amount 320 g/ha
How it was run: (§1)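 Seeds were sown in sterilized diluvial soil, covered with about 1.5 cm of soil, and the soil surface was sprayed with a water-diluted emulsion of the compound at a predetermined rate. Plants grew in a greenhouse at 25° C. to 30° C.; effects were scored visually 3 weeks after application.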

Lolium multiflorum Lam. = assay: Test Example 4: herbicidal effect by soil treatment (symbol K); conditions: for K (Lolium multiflorum Lam.) herbicidal effect grade: application herbicide amount 320 g/ha
How it was run: as §1

soybean = assay: Test Example 4: effect on crop by soil treatment (symbol d); conditions: for d (soybean) effect on crop grade: application herbicide amount 320 g/ha
How it was run: (§2)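 Seeds were sown in spots on sterilized diluvial soil in a plastic box and covered with about 1.5 cm of soil. Plants were then grown in a greenhouse at 25° C. to 30° C.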

rice = assay: Test Example 4: effect on crop by soil treatment (symbol b); conditions: for b (directly sowed rice plant) effect on crop grade: application herbicide amount 320 g/ha
How it was run: as §2

wheat = assay: Test Example 4: effect on crop by soil treatment (symbol e); conditions: for e (wheat) effect on crop grade: application herbicide amount 320 g/ha
How it was run: as §2

Digitaria ciliaris = assay: Test Example 5: herbicidal effect by foliage application, plastic box (symbol F); conditions: 320 g/ha, 3 weeks after application
How it was run: (§3)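 Effect is rated 3 weeks after a foliar spray of water-diluted emulsion concentrate at a predetermined herbicide amount. Plants had grown 14 days in a 25° C. to 30° C. greenhouse from seed in sterilized diluvial soil.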

[2] = system: Echinochloa crus-galli var. crus-galli; assay: Test Example 5: herbicidal effect by foliage application, plastic box (symbol H); conditions: 320 g/ha, 3 weeks after application
How it was run: as §3

Alopecurus myosuroides [3] = assay: Test Example 5: herbicidal effect by foliage application, plastic box (symbol J); conditions: 320 g/ha, 3 weeks after application
How it was run: as §3

Galium spurium = assay: Test Example 5: herbicidal effect by foliage application, plastic box (symbol Q); conditions: 320 g/ha, 3 weeks after application
How it was run: as §3

corn = assay: Test Example 5: effect on crop by foliage application, plastic box (symbol c); conditions: 320 g/ha, 3 weeks after application
How it was run: (§4)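 Crop seed is sown alongside grass and broadleaf weed species in spots in sterilized diluvial soil, then covered to a depth of about 1.5 cm. Plants grow in a greenhouse kept at 25° C. to 30° C.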

rapeseed = assay: Test Example 5: effect on crop by foliage application, plastic box (symbol g); conditions: 320 g/ha, 3 weeks after application
How it was run: as §4

CON=CCC1CC(O)=C(c2c(C)cc(C)cc2C)C1=O (stereo not shown) [1-050]
Herbicidal effect grade, B: Scirpus juncoides (Scirpus juncoides): 2 (Herbicidal ratio of 20% or higher and lower than 40%)
Effect grade on crop, a: transplanted rice plant (transplanted rice plant): 4 (Herbicidal ratio of 70% or higher and lower than 90%)
Herbicidal effect grade, C: Monochoria vaginalis (Monochoria vaginalis): 0 (Herbicidal ratio of 5% or lower (almost no effect))
J (Alopecurus myosuroides) herbicidal effect grade (Alopecurus myosuroides [1]): 0 (Herbicidal ratio of 5% or lower (almost no effect))
K (Lolium multiflorum Lam.) herbicidal effect grade (Lolium multiflorum Lam.): 4 (Herbicidal ratio of 70% or higher and lower than 90%)
d (soybean) effect on crop grade (soybean): 0 (Herbicidal ratio of 5% or lower (almost no effect))
b (directly sowed rice plant) effect on crop grade (rice): 5 (Herbicidal ratio of 90% or more (almost completely withered))
e (wheat) effect on crop grade (wheat): 0 (Herbicidal ratio of 5% or lower (almost no effect))
F: Digitaria ciliaris, herbicidal effect grade (Digitaria ciliaris): 3 (Herbicidal ratio of 40% or higher and lower than 70%)
H: Echinochloa crus-galli var. crus-galli, herbicidal effect grade [2]: 5 (Herbicidal ratio of 90% or more (almost completely withered))
J: Alopecurus myosuroides, herbicidal effect grade (Alopecurus myosuroides [3]): 4 (Herbicidal ratio of 70% or higher and lower than 90%)
Q: Galium spurium, herbicidal effect grade (Galium spurium): 0 (Herbicidal ratio of 5% or lower (almost no effect))
c: corn, effect on crop grade (corn): 0 (Herbicidal ratio of 5% or lower (almost no effect))
g: rapeseed, effect on crop grade (rapeseed): 4 (Herbicidal ratio of 70% or higher and lower than 90%)

COCC(=O)OC1=C(c2c(C)cc(C)cc2C)C(=O)C(CC(C)=NOC)C1 (stereo not shown) [1-093]
Herbicidal effect grade, B: Scirpus juncoides (Scirpus juncoides): 5 (Herbicidal ratio of 90% or more (almost completely withered))
Effect grade on crop, a: transplanted rice plant (transplanted rice plant): 5 (Herbicidal ratio of 90% or more (almost completely withered))
Herbicidal effect grade, C: Monochoria vaginalis (Monochoria vaginalis): 3 (Herbicidal ratio of 40% or higher and lower than 70%)
J: Alopecurus myosuroides, herbicidal effect grade (Alopecurus myosuroides [1]; 320 g/ha): 5 (Herbicidal ratio of 90% or more (almost completely withered))
K: Lolium multiflorum Lam., herbicidal effect grade (Lolium multiflorum Lam.; 320 g/ha): 5 (Herbicidal ratio of 90% or more (almost completely withered))
d: soybean, effect grade on crop (soybean; 320 g/ha): 0 (Herbicidal ratio of 5% or lower (almost no effect))
b: directly sowed rice plant, effect grade on crop (rice; 320 g/ha): 5 (Herbicidal ratio of 90% or more (almost completely withered))
e: wheat, effect grade on crop (wheat; 320 g/ha): 4 (Herbicidal ratio of 70% or higher and lower than 90%)
F: Digitaria ciliaris, herbicidal effect (criteria 0-5) (Digitaria ciliaris): 5 (Herbicidal ratio of 90% or more (almost completely withered))
H: Echinochloa crus-galli var. crus-galli, herbicidal effect (criteria 0-5) [2]: 5 (Herbicidal ratio of 90% or more (almost completely withered))
J: Alopecurus myosuroides, herbicidal effect (criteria 0-5) (Alopecurus myosuroides [3]): 5 (Herbicidal ratio of 90% or more (almost completely withered))
Q: Galium spurium, herbicidal effect (criteria 0-5) (Galium spurium): 0 (Herbicidal ratio of 5% or lower (almost no effect))
c: corn, effect on crop (criteria 0-5) (corn): 5 (Herbicidal ratio of 90% or more (almost completely withered))
g: rapeseed, effect on crop (criteria 0-5) (rapeseed): 4 (Herbicidal ratio of 70% or higher and lower than 90%)

CSCCON=C(C)CC1CC(O)=C(c2c(C)cc(C)cc2C)C1=O (stereo not shown) [1-029]
Herbicidal effect grade, B: Scirpus juncoides (Scirpus juncoides): 0 (Herbicidal ratio of 5% or lower (almost no effect))
Effect grade on crop, a: transplanted rice plant (transplanted rice plant): 5 (Herbicidal ratio of 90% or more (almost completely withered))
Herbicidal effect grade, C: Monochoria vaginalis (Monochoria vaginalis): 0 (Herbicidal ratio of 5% or lower (almost no effect))
J (Alopecurus myosuroides) herbicidal effect grade (Alopecurus myosuroides [1]): 3 (Herbicidal ratio of 40% or higher and lower than 70%)
K (Lolium multiflorum Lam.) herbicidal effect grade (Lolium multiflorum Lam.): 5 (Herbicidal ratio of 90% or more (almost completely withered))
d (soybean) effect on crop grade (soybean): 0 (Herbicidal ratio of 5% or lower (almost no effect))
b (directly sowed rice plant) effect on crop grade (rice): 5 (Herbicidal ratio of 90% or more (almost completely withered))
e (wheat) effect on crop grade (wheat): 0 (Herbicidal ratio of 5% or lower (almost no effect))
F: Digitaria ciliaris, herbicidal effect grade (Digitaria ciliaris): 5 (Herbicidal ratio of 90% or more (almost completely withered))
H: Echinochloa crus-galli var. crus-galli, herbicidal effect grade [2]: 5 (Herbicidal ratio of 90% or more (almost completely withered))
J: Alopecurus myosuroides, herbicidal effect grade (Alopecurus myosuroides [3]): 5 (Herbicidal ratio of 90% or more (almost completely withered))
Q: Galium spurium, herbicidal effect grade (Galium spurium): 3 (Herbicidal ratio of 40% or higher and lower than 70%)
c: corn, effect on crop grade (corn): 3 (Herbicidal ratio of 40% or higher and lower than 70%)
g: rapeseed, effect on crop grade (rapeseed): 4 (Herbicidal ratio of 70% or higher and lower than 90%)

CON=C(CC1CC1)CC1CC(O)=C(c2c(C)cc(C)cc2C)C1=O (stereo not shown) [1-070]
Herbicidal effect grade, B: Scirpus juncoides (Scirpus juncoides): 0 (Herbicidal ratio of 5% or lower (almost no effect))
Effect grade on crop, a: transplanted rice plant (transplanted rice plant): 4 (Herbicidal ratio of 70% or higher and lower than 90%)
Herbicidal effect grade, C: Monochoria vaginalis (Monochoria vaginalis): 0 (Herbicidal ratio of 5% or lower (almost no effect))
J (Alopecurus myosuroides) herbicidal effect grade (Alopecurus myosuroides [1]): 5 (Herbicidal ratio of 90% or more (almost completely withered))
K (Lolium multiflorum Lam.) herbicidal effect grade (Lolium multiflorum Lam.): 5 (Herbicidal ratio of 90% or more (almost completely withered))
d (soybean) effect on crop grade (soybean): 0 (Herbicidal ratio of 5% or lower (almost no effect))
b (directly sowed rice plant) effect on crop grade (rice): 5 (Herbicidal ratio of 90% or more (almost completely withered))
e (wheat) effect on crop grade (wheat): 0 (Herbicidal ratio of 5% or lower (almost no effect))
F: Digitaria ciliaris, herbicidal effect grade (Digitaria ciliaris): 1 (Herbicidal ratio of 5% or higher and lower than 20%)
H: Echinochloa crus-galli var. crus-galli, herbicidal effect grade [2]: 3 (Herbicidal ratio of 40% or higher and lower than 70%)
J: Alopecurus myosuroides, herbicidal effect grade (Alopecurus myosuroides [3]): 5 (Herbicidal ratio of 90% or more (almost completely withered))
Q: Galium spurium, herbicidal effect grade (Galium spurium): 2 (Herbicidal ratio of 20% or higher and lower than 40%)
c: corn, effect on crop grade (corn): 4 (Herbicidal ratio of 70% or higher and lower than 90%)
g: rapeseed, effect on crop grade (rapeseed): 3 (Herbicidal ratio of 40% or higher and lower than 70%)

CON=C(CC1CC(O)=C(c2c(C)cc(C)cc2C)C1=O)C1CC1 (stereo not shown) [1-046]
Herbicidal effect grade, B: Scirpus juncoides (Scirpus juncoides): 5 (Herbicidal ratio of 90% or more (almost completely withered))
Effect grade on crop, a: transplanted rice plant (transplanted rice plant): 5 (Herbicidal ratio of 90% or more (almost completely withered))
Herbicidal effect grade, C: Monochoria vaginalis (Monochoria vaginalis): 3 (Herbicidal ratio of 40% or higher and lower than 70%)
J (Alopecurus myosuroides) herbicidal effect grade (Alopecurus myosuroides [1]): 5 (Herbicidal ratio of 90% or more (almost completely withered))
K (Lolium multiflorum Lam.) herbicidal effect grade (Lolium multiflorum Lam.): 5 (Herbicidal ratio of 90% or more (almost completely withered))
d (soybean) effect on crop grade (soybean): 0 (Herbicidal ratio of 5% or lower (almost no effect))
b (directly sowed rice plant) effect on crop grade (rice): 5 (Herbicidal ratio of 90% or more (almost completely withered))
e (wheat) effect on crop grade (wheat): 4 (Herbicidal ratio of 70% or higher and lower than 90%)
F: Digitaria ciliaris, herbicidal effect grade (Digitaria ciliaris): 4 (Herbicidal ratio of 70% or higher and lower than 90%)
H: Echinochloa crus-galli var. crus-galli, herbicidal effect grade [2]: 5 (Herbicidal ratio of 90% or more (almost completely withered))
J: Alopecurus myosuroides, herbicidal effect grade (Alopecurus myosuroides [3]): 5 (Herbicidal ratio of 90% or more (almost completely withered))
Q: Galium spurium, herbicidal effect grade (Galium spurium): 0 (Herbicidal ratio of 5% or lower (almost no effect))
c: corn, effect on crop grade (corn): 5 (Herbicidal ratio of 90% or more (almost completely withered))
g: rapeseed, effect on crop grade (rapeseed): 4 (Herbicidal ratio of 70% or higher and lower than 90%)
